Results published in ChEMBL document CHEMBL4433259, “Rifamycin derivatives active against pathogenic rapidly-growing mycobacteria” (Bioorg Med Chem Lett, 2019).
The source made the active and inactive calls. No cut-off for these calls is given here.

How the values were obtained:
[1] = tested on: Mycobacteroides abscessus; experiment: Antimycobacterial activity against Mycobacterium abscessus FM0058 clinical isolate assessed as inhibition zone diameter at 25 ng after 3 days by disc diffusion method; assay type: functional
[2] = tested on: Mycobacteroides abscessus; experiment: Antimycobacterial activity against Mycobacterium abscessus ATCC 19977 assessed as inhibition zone diameter at 12.5 ng after 3 days by disc diffusion method; assay type: functional
[3] = tested on: Mycobacteroides abscessus; experiment: Antimycobacterial activity against Mycobacterium abscessus FM0058 clinical isolate assessed as inhibition zone diameter at 1.56 ng after 3 days by disc diffusion method; assay type: functional
[4] = tested on: Mycobacteroides abscessus; experiment: Antimycobacterial activity against Mycobacterium abscessus FM0058 clinical isolate assessed as inhibition zone diameter at 6.25 ng after 3 days by disc diffusion method; assay type: functional
[5] = tested on: Mycobacteroides abscessus; experiment: Antimycobacterial activity against Mycobacterium abscessus FM0058 clinical isolate assessed as inhibition zone diameter at 100 ng after 3 days by disc diffusion method; assay type: functional
[6] = tested on: Mycobacteroides abscessus; experiment: Antimycobacterial activity against Mycobacterium abscessus ATCC 19977 assessed as inhibition zone diameter at 100 ng after 3 days by disc diffusion method; assay type: functional
[7] = tested on: Mycobacteroides abscessus; experiment: Antimycobacterial activity against Mycobacterium abscessus ATCC 19977 assessed as inhibition zone diameter at 800 ng after 3 days by disc diffusion method; assay type: functional
[8] = tested on: Mycobacteroides chelonae; experiment: Antimycobacterial activity against Mycobacterium chelonae assessed as reduction in microbial growth by CLSI method; assay type: functional
[9] = tested on: Mycobacteroides abscessus; experiment: Antimycobacterial activity against Mycobacterium abscessus ATCC 19977 assessed as inhibition zone diameter at <3 ng after 3 days by disc diffusion method; assay type: functional, organism-based
[10] = tested on: Mycobacteroides abscessus; experiment: Antimycobacterial activity against Mycobacterium abscessus FM0058 clinical isolate assessed as inhibition zone diameter at 800 ng after 3 days by disc diffusion method; assay type: functional
[11] = Antimycobacterial activity against Mycobacterium abscessus subsp. bolletii assessed as reduction in microbial growth by CLSI method; assay type: functional; settings: Mycobacteroides abscessus
[12] = tested on: Mycobacteroides abscessus; experiment: Antimycobacterial activity against Mycobacterium abscessus ATCC 19977 assessed as inhibition zone diameter at 3.125 ng after 3 days by disc diffusion method; assay type: functional
[13] = tested on: Mycobacteroides abscessus; experiment: Antimycobacterial activity against Mycobacterium abscessus FM0058 clinical isolate assessed as inhibition zone diameter at <3 ng after 3 days by disc diffusion method; assay type: functional, organism-based
[14] = tested on: Mycobacteroides abscessus; experiment: Antimycobacterial activity against Mycobacterium abscessus FM0058 clinical isolate assessed as inhibition zone diameter at 50 ng after 3 days by disc diffusion method; assay type: functional
[15] = tested on: Mycobacteroides abscessus; experiment: Antimycobacterial activity against Mycobacterium abscessus FM0058 clinical isolate assessed as inhibition zone diameter at 200 ng after 3 days by disc diffusion method; assay type: functional
[16] = tested on: Mycobacteroides abscessus; experiment: Antimycobacterial activity against Mycobacterium abscessus ATCC 19977 assessed as inhibition zone diameter at 400 ng after 3 days by disc diffusion method; assay type: functional
[17] = tested on: Mycobacteroides abscessus; experiment: Antimycobacterial activity against Mycobacterium abscessus FM0058 clinical isolate assessed as inhibition zone diameter at 3.125 ng after 3 days by disc diffusion method; assay type: functional
[18] = Antimycobacterial activity against Mycobacterium abscessus subsp. massiliense assessed as reduction in microbial growth by CLSI method; assay type: functional; settings: Mycobacteroides abscessus
[19] = tested on: Mycobacteroides abscessus; experiment: Antimycobacterial activity against Mycobacterium abscessus ATCC 19977 assessed as inhibition zone diameter at 50 ng after 3 days by disc diffusion method; assay type: functional
[20] = tested on: Mycobacteroides abscessus; experiment: Antimycobacterial activity against Mycobacterium abscessus FM0058 clinical isolate assessed as inhibition zone diameter at 400 ng after 3 days by disc diffusion method; assay type: functional
[21] = tested on: Mycolicibacterium fortuitum; experiment: Antimycobacterial activity against Mycobacterium fortuitum assessed as reduction in microbial growth by CLSI method; assay type: functional
[22] = Antimycobacterial activity against Mycobacterium abscessus subsp. abscessus assessed as reduction in microbial growth by CLSI method; assay type: functional; settings: Mycobacteroides abscessus
[23] = tested on: Mycobacteroides abscessus; experiment: Antimycobacterial activity against Mycobacterium abscessus ATCC 19977 assessed as inhibition zone diameter at 6.25 ng after 3 days by disc diffusion method; assay type: functional
[24] = tested on: Mycobacteroides abscessus; experiment: Antimycobacterial activity against Mycobacterium abscessus ATCC 19977 assessed as inhibition zone diameter at 200 ng after 3 days by disc diffusion method; assay type: functional
[25] = tested on: Mycobacteroides abscessus; experiment: Antimycobacterial activity against Mycobacterium abscessus FM0058 clinical isolate assessed as inhibition zone diameter at 12.5 ng after 3 days by disc diffusion method; assay type: functional
[26] = tested on: Mycobacteroides abscessus; experiment: Antimycobacterial activity against Mycobacterium abscessus ATCC 19977 assessed as inhibition zone diameter at 25 ng after 3 days by disc diffusion method; assay type: functional
[27] = tested on: Mycobacteroides abscessus; experiment: Antimycobacterial activity against Mycobacterium abscessus ATCC 19977 assessed as inhibition zone diameter at 1.56 ng after 3 days by disc diffusion method; assay type: functional
[28] = tested on: Mycolicibacterium smegmatis; experiment: Antimycobacterial activity against Mycobacterium smegmatis assessed as reduction in microbial growth by CLSI method; assay type: functional
[29] = Drug metabolism in Mycobacterium abscessus ATCC 19977 assessed as C23 ribosylated derivative formation by LC/MS analysis relative to control; assay type: ADME; settings: Mycobacteroides abscessus
[30] = Drug metabolism in Mycobacterium abscessus ATCC 19977 assessed as adenine ribosylated diphosphate derivative formation by LC/MS analysis; assay type: ADME; settings: Mycobacteroides abscessus

| Compound | diameter of the inhibition zone (DIZ) [1] [mm] | diameter of the inhibition zone (DIZ) [2] [mm] | diameter of the inhibition zone (DIZ) [3] [mm] | diameter of the inhibition zone (DIZ) [4] [mm] | diameter of the inhibition zone (DIZ) [5] [mm] | diameter of the inhibition zone (DIZ) [6] [mm] | diameter of the inhibition zone (DIZ) [7] [mm] | MIC [8] [µg/mL] | diameter of the inhibition zone (DIZ) [9] | diameter of the inhibition zone (DIZ) [10] [mm] | MIC [11] [µg/mL] | diameter of the inhibition zone (DIZ) [12] [mm] | diameter of the inhibition zone (DIZ) [13] | diameter of the inhibition zone (DIZ) [14] [mm] | diameter of the inhibition zone (DIZ) [15] [mm] | diameter of the inhibition zone (DIZ) [16] [mm] | MIC [18] [µg/mL] | MIC [21] [µg/mL] | MIC [22] [µg/mL] | MIC [28] [µg/mL] | also measured |
| --- | --- | --- | --- | --- | --- | --- | --- | --- | --- | --- | --- | --- | --- | --- | --- | --- | --- | --- | --- | --- | --- |
| CO[C@H]1/C=C/O[C@@]2(C)Oc3c(C)c(O)c4c(c3C2=O)C(=O)C(N2CCOCC2)=C(NC(=O)/C(C)=C\C=C\[C@H](C)[C@H](O)[C@@H](C)[C@@H](O)[C@@H](C)[C@H](OC(=O)NCc2cc(-c3ccccc3)no2)[C@@H]1C)C4=O | 7 | 0 | 0 | 0 | 17 | 12 | 24 | 0.5 | inactive | >30 | 0.125 | 0 | inactive | 13 | 21 | 20 | 0.5 | 0.0625 | 0.5 | – | diameter of the inhibition zone (DIZ) [17]: 0 mm; diameter of the inhibition zone (DIZ) [19]: 7 mm; diameter of the inhibition zone (DIZ) [20]: 26 mm; diameter of the inhibition zone (DIZ) [23]: 0 mm; diameter of the inhibition zone (DIZ) [24]: 16 mm; diameter of the inhibition zone (DIZ) [25]: 0 mm; diameter of the inhibition zone (DIZ) [26]: 0 mm; diameter of the inhibition zone (DIZ) [27]: 0 mm |
| CO[C@H]1/C=C/O[C@@]2(C)Oc3c(C)c(O)c4c(c3C2=O)C(=O)C(N2CCOCC2)=C(NC(=O)/C(C)=C\C=C\[C@H](C)[C@H](O)[C@@H](C)[C@@H](O)[C@@H](C)[C@H](OC(=O)NCc2cc(-c3ccccn3)no2)[C@@H]1C)C4=O | 0 | 0 | 0 | 0 | 20 | 16 | 27 | 64 | inactive | >30 | 8 | 0 | inactive | 9 | 25 | 24 | 8 | 1 | 8 | 0.5 | diameter of the inhibition zone (DIZ) [17]: 0 mm; diameter of the inhibition zone (DIZ) [19]: 14 mm; diameter of the inhibition zone (DIZ) [20]: 30 mm; diameter of the inhibition zone (DIZ) [23]: 0 mm; diameter of the inhibition zone (DIZ) [24]: 20 mm; diameter of the inhibition zone (DIZ) [25]: 0 mm; diameter of the inhibition zone (DIZ) [26]: 0 mm; diameter of the inhibition zone (DIZ) [27]: 0 mm |
| CO[C@H]1/C=C/O[C@@]2(C)Oc3c(C)c(O)c4c(c3C2=O)C(=O)C(N2CCOCC2)=C(NC(=O)/C(C)=C\C=C\[C@H](C)[C@H](O)[C@@H](C)[C@@H](O)[C@@H](C)[C@H](OC(=O)NC2CCN(Cc3ccccc3)CC2)[C@@H]1C)C4=O | 20 | 13 | 0 | 11 | 24 | 24 | >30 | < 0.03 | inactive | >30 | 0.0625 | 0 | inactive | 22 | 29 | >30 | 0.25 | < 0.03 | < 0.03 | 0.12 | Drug metabolism [29]: Metabolite_Notdetected; Drug metabolism [30]: Metabolite_Notdetected; diameter of the inhibition zone (DIZ) [17]: 0 mm; diameter of the inhibition zone (DIZ) [19]: 21 mm; diameter of the inhibition zone (DIZ) [20]: >30 mm; diameter of the inhibition zone (DIZ) [23]: 0 mm; diameter of the inhibition zone (DIZ) [24]: >30 mm; diameter of the inhibition zone (DIZ) [25]: 16 mm; diameter of the inhibition zone (DIZ) [26]: 16 mm; diameter of the inhibition zone (DIZ) [27]: 0 mm |
| COc1ccccc1-c1cc(CNC(=O)O[C@H]2[C@H](C)[C@H](O)[C@H](C)[C@@H](O)[C@@H](C)/C=C/C=C(/C)C(=O)NC3=C(N4CCOCC4)C(=O)c4c(c(O)c(C)c5c4C(=O)[C@@](C)(O/C=C/[C@H](OC)[C@H]2C)O5)C3=O)on1 | – | – | – | – | – | – | – | 64 | – | – | 16 | – | – | – | – | – | 64 | 0.25 | 64 | 0.12 | – |
| COc1ccc(CNC(=O)O[C@H]2[C@H](C)[C@H](O)[C@H](C)[C@@H](O)[C@@H](C)/C=C/C=C(/C)C(=O)NC3=C(N4CCOCC4)C(=O)c4c(c(O)c(C)c5c4C(=O)[C@@](C)(O/C=C/[C@H](OC)[C@H]2C)O5)C3=O)cc1 | – | – | – | – | – | – | – | > 64 | – | – | 16 | – | – | – | – | – | 8 | 1 | 64 | 0.06 | – |
| CO[C@H]1/C=C/O[C@@]2(C)Oc3c(C)c(O)c4c(c3C2=O)C(=O)C(N2CCOCC2)=C(NC(=O)/C(C)=C\C=C\[C@H](C)[C@H](O)[C@@H](C)[C@@H](O)[C@@H](C)[C@H](OC(=O)NCCN(C(C)C)C(C)C)[C@@H]1C)C4=O | – | – | – | – | – | – | – | 1 | – | – | 0.25 | – | – | – | – | – | 1 | 8 | 0.5 | – | – |
| CO[C@H]1/C=C/O[C@@]2(C)Oc3c(C)c(O)c4c(O)c(c(/C=N/N5CCN(C)CC5)c(O)c4c3C2=O)NC(=O)/C(C)=C\C=C\[C@H](C)[C@H](O)[C@@H](C)[C@@H](O)[C@@H](C)[C@H](OC(C)=O)[C@@H]1C [RIFAMPIN] | 0 | 0 | 0 | 0 | 0 | 0 | 0 | > 64 | inactive | 0 | > 64 | 0 | inactive | 0 | 0 | 0 | > 64 | > 64 | > 64 | 32 | Drug metabolism [30]: Metabolite_Notdetected; diameter of the inhibition zone (DIZ) [17]: 0 mm; diameter of the inhibition zone (DIZ) [19]: 0 mm; diameter of the inhibition zone (DIZ) [20]: 0 mm; diameter of the inhibition zone (DIZ) [23]: 0 mm; diameter of the inhibition zone (DIZ) [24]: 0 mm; diameter of the inhibition zone (DIZ) [25]: 0 mm; diameter of the inhibition zone (DIZ) [26]: 0 mm; diameter of the inhibition zone (DIZ) [27]: 0 mm |
| CO[C@H]1/C=C/O[C@@]2(C)Oc3c(C)c(O)c4c(c3C2=O)C(=O)C(N2CCOCC2)=C(NC(=O)/C(C)=C\C=C\[C@H](C)[C@H](O)[C@@H](C)[C@@H](O)[C@@H](C)[C@H](OC(=O)NCc2ccc(N(C)C)cc2)[C@@H]1C)C4=O | – | – | – | – | – | – | – | 16 | – | – | 8 | – | – | – | – | – | 8 | 1 | 8 | 0.06 | – |
